Earlier results on 3 molecules are cited in paper PMC8364112 (Proceedings of the National Academy of Sciences of the …, 2021).

For the data set, the system named is PTH2R. To be noted: for mode of action on PTH2R: potent / mild / weak, ref [4], [16].

For “parathyroid hormone (SVSEIQLMHNLGKHLNSMERVEWLRKKLQDVHNF; Parathyroid hormone; UniProt P01270 32-65, looked up, fragment) [PTH]”, the “mode of action on PTH2R” value ([13]) is given as “mild”. For the molecule PTH-related peptide [PTHrP], under “[13]”, the “mode of action on PTH2R” value is “weak”. The “action on PTH2R” value (ref [3], [4], [13]) is reported as “weak action on PTH2R”.

B1: substitution of Ile5^P of PTH with a histidine: PTH with Ile5 substituted with a histidine (peptide, UniProt P01270 32-115, looked up, variant I5H)
Parathyroid hormone: SVSEHQLMHNLGKHLNSMERVEWLRKKLQDVHNFVALGAPLAPRDAGSQRPRKKEDNVLVESHEKSLGEADKADVNVLTKAKSQ
modifications: Parathyroid hormone
In the case of B1, the “effect of position 5 substitution on potency on PTH2R” value (ref [27]) is on record as “decreases the peptide potency”.
